# Calls of active or inactive are those of the source. The rule behind the calls is not given here. Peptide text beside a SMILES is read from it. * marks the point of attachment. X1 = CC(=O)O[C@H]1C(=O)[C@@]2(C)[C@H]([C@H](OC(=O)c3ccccc3)[C@]3(O)C[C@H](OC(=O)[C@H](OC(=O)OCCS*)[C@@H](NC(=O)c4ccccc4)c4ccccc4)C(C)=C1C3(C)C)[C@]1(OC(C)=O)CO[C@@H]1C[C@@H]2O; X2 = NCCCC[C@H](N*)C(=O)NC(=O)C1CCC(=O)N1
# Assays:
# [1] = Drug uptake in human MCF7 cells at 20 nM measured after 4 hrs in presence of MMP inhibitor ilomastat and LHRH by LC-MS analysis; assay type: ADME, cell-based; conditions: mcf7, 4 h, 0.02 µM
# [2] = Toxicity in human MCF7 cells xenografted in BALB/c nude mouse assessed as change in body weight at 8 to 12 umol/kg, ip administered every two days for two weeks; assay type: organism-based; conditions: in vivo, 336 h, dose 8-12 µmol/kg, time 2 weeks
# MCF7 [3] = assay: Induction of apoptosis in human MCF7 cells xenografted in ip dosed BALB/c nude mouse assessed as up regulation of Bax expression administered every two days for two weeks measured post last dose by Western blot analysis; assay type: functional, organism-based; conditions: dose 8-12 µmol/kg, time 2.0 weeks
# MCF7 [4] = assay: Antitumor activity against human MCF7 cells xenografted in BALB/c nude mouse assessed as reduction in tumor volume at 12 umol/kg, ip administered every two days for two weeks relative to control; assay type: functional; design: scale not given: the % may be the effect or the level left; conditions: dose 12 µmol/kg; time 2 weeks
# [5] = Neurotoxicity in BALB/c mouse assessed as increase in pain sensitivity at 12 umol/kg, ip administered every two days for 14 days by cold water tail immersion test; assay type: toxicity, organism-based; conditions: in vivo, 336 h, dose 12 µmol/kg, time 14 day
# HeLa = assay: Cytotoxicity against human HeLa cells assessed as reduction in cell viability measured after 48 hrs by MTT assay; assay type: functional, cell-based
# Tubulin (Homo sapiens) = Tubulin (Homo sapiens) (UniProt P68371+Q9H4B7+P0DPH7+P68366+Q13509+Q71U36+P04350+Q3ZCM7+P07437+P68363+Q9BQE3+Q6PEY2+Q13885+Q9BVA1+Q9BUF5); assay: Inhibition of microtubule depolymerization in human MCF7 cells at 1.8 nM measured after 12 hrs by immunostaining based confocal microscopic analysis; assay type: cell-based
# [6] = Neurotoxicity in BALB/c mouse assessed as change in glutamine level at 12 umol/kg, ip administered every two days for 14 days measured post last dose by LC-MS analysis; assay type: toxicity, organism-based; conditions: in vivo, 336 h, dose 12 µmol/kg, time 14 day
# [7] = Toxicity in human MCF7 cells xenografted in BALB/c nude mouse assessed as morphological changes in spleen at 8 to 12 umol/kg, ip administered every two days for two weeks measured post last dose by H and E staining based histological analysis; assay type: organism-based; conditions: in vivo, 336 h, dose 8-12 µmol/kg, time 2 weeks
# [8] = Neurotoxicity in BALB/c mouse assessed as change in GABA level at 12 umol/kg, ip administered every two days for 14 days measured post last dose by LC-MS analysis; assay type: toxicity, organism-based; conditions: in vivo, 336 h, dose 12 µmol/kg, time 14 day
# [9] = Myelosuppression in BALB/c mouse assessed as change in granulocyte count at 12 umol/kg, ip administered every two days for 14 days measured post last dose; assay type: ADME, organism-based; conditions: in vivo, 336 h, dose 12 µmol/kg, time 14 day
# [10] = Neurotoxicity in BALB/c mouse assessed as increase in pain sensitivity at 12 umol/kg, ip administered every two days for 14 days by hot-plate test; assay type: toxicity, organism-based; conditions: in vivo, 336 h, dose 12 µmol/kg, time 14 day
# Erythrocyte = assay: Hemolytic activity against human erythrocytes up to 80 uM measured after 1 hr; assay type: ADME, cell-based
# [11] = Neurotoxicity in BALB/c mouse assessed as change in glutamate level at 12 umol/kg, ip administered every two days for 14 days measured post last dose by LC-MS analysis; assay type: toxicity, organism-based; conditions: in vivo, 336 h, dose 12 µmol/kg, time 14 day
# NCM460 = assay: Cytotoxicity against human NCM460 cells assessed as reduction in cell viability measured after 48 hrs by MTT assay; assay type: cell-based; conditions: NCM460, 48 h
# MCF7 [12] = assay: Induction of mitochondrial membrane potential loss in human MCF7 cells at IC50 measured after 4 hrs by JC-1 staining based flow cytometry; assay type: functional, cell-based
# [13] = Neurotoxicity in BALB/c mouse assessed as change in histamine level at 12 umol/kg, ip administered every two days for 14 days measured post last dose by LC-MS analysis; assay type: toxicity, organism-based; conditions: in vivo, 336 h, dose 12 µmol/kg, time 14 day
# [14] = Toxicity in human MCF7 cells xenografted in BALB/c nude mouse assessed as morphological changes in kidney at 8 to 12 umol/kg, ip administered every two days for two weeks measured post last dose by H and E staining based histological analysis; assay type: organism-based; conditions: in vivo, 336 h, dose 8-12 µmol/kg, time 2 weeks
# [15] = Neurotoxicity in BALB/c mouse assessed as change in vanillylmandelic acid level at 12 umol/kg, ip administered every two days for 14 days measured post last dose by LC-MS analysis; assay type: toxicity, organism-based; conditions: in vivo, 336 h, dose 12 µmol/kg, time 14 day
# [16] = molecular target: 72 kDa type IV collagenase (Homo sapiens, UniProt P08253); assay: Drug metabolism in PBS buffer assessed as MMP2 (unknown origin)-mediated CPP-PTX formation at 0.5 uM measured after 2 hrs by LC-MS analysis; assay type: ADME
# [17] = Drug conversion in liver of BALB/c nude mouse xenografted with human MCF7 cells assessed as T2-PTX formation at 8 to 12 umol/kg, ip measured after 2 hrs by LC-MS analysis; assay type: ADME, organism-based; conditions: in vivo, dose 8-12 µmol/kg
# [18] = Stability of compound in PBS buffer at 0.5 uM measured after 2 hrs by LC-MS analysis; assay type: physicochemical
# MCF7 [19] = assay: Cytotoxicity against human MCF7 cells assessed as reduction in cell viability measured after 48 hrs in presence of LHRH by MTT assay; assay type: functional, cell-based
# MCF7 [20] = assay: Cytotoxicity against human MCF7 cells assessed as reduction in cell viability measured after 48 hrs in presence of MMP inhibitor ilomastat by MTT assay; assay type: functional, cell-based
# MCF7 [21] = assay: Induction of apoptosis in human MCF7 cells xenografted in ip dosed BALB/c nude mouse assessed as up regulation of cleaved caspase-9 expression administered every two days for two weeks measured post last dose by Western blot analysis; assay type: functional, organism-based; conditions: dose 8-12 µmol/kg, time 2.0 weeks
# [22] = Cytotoxicity against human A2780/PTX cells assessed as reduction in cell viability measured after 48 hrs by MTT assay; assay type: functional, cell-based
# [23] = Toxicity in human MCF7 cells xenografted in BALB/c nude mouse assessed as morphological changes in liver at 8 to 12 umol/kg, ip administered every two days for two weeks measured post last dose by H and E staining based histological analysis; assay type: organism-based; conditions: in vivo, 336 h, dose 8-12 µmol/kg, time 2 weeks
# MCF7 [24] = assay: Cell cycle arrest in human MCF7 cells assessed as increase in accumulation at G2/M-phase at IC50 measured after 4 hrs by […] flow cytometry; assay type: functional
# [25] = Drug uptake in human MCF7 cells at 20 nM measured after 4 hrs by LC-MS analysis; assay type: ADME, cell-based; conditions: mcf7, 4 h, 0.02 µM
# Sequence of 72 kDa type IV collagenase (P08253 whole entry): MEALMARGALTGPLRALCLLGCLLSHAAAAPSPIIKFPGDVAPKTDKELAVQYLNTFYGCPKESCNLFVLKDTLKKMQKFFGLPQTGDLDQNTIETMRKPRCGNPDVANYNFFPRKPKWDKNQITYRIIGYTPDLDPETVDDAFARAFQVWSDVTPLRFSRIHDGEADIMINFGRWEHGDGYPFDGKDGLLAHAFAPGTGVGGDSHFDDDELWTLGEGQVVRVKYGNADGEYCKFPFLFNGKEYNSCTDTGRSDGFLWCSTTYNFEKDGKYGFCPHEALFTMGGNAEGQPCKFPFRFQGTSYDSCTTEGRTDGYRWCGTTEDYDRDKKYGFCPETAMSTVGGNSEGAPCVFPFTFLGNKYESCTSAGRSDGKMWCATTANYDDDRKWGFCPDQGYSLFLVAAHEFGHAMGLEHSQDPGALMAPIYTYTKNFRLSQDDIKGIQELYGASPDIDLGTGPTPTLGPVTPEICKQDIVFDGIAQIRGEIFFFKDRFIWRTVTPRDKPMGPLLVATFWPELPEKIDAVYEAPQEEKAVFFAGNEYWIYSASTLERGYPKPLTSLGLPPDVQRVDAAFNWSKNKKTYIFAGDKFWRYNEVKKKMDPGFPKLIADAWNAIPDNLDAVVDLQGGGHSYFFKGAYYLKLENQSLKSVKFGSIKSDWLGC
smiles,measurement,setting,value
CC(=O)O[C@H]1C(=O)[C@@]2(C)[C@H]([C@H](OC(=O)c3ccccc3)[C@]3(O)C[C@H](OC(=O)[C@H](OC(=O)OCCSSC[C@H](N)C(=O)N[C@@H](CC(C)C)C(=O)N[C@@H](CC(C)C)C(=O)N[C@@H](CCCCN)C(=O)N[C@@H](CCCNC(=N)N)C(=O)N[C@@H](Cc4ccccc4)C(=O)N[C@@H](Cc4ccccc4)C(=O)N[C@@H](CCCCN)C(=O)N[C@@H](CCCCN)C(=O)N[C@@H](Cc4ccccc4)C(=O)NCC(=O)N[C@@H](C)C(=O)N[C@@H](CC(C)C)C(=O)NCC(=O)N[C@@H](CC(C)C)C(=O)N4CCC[C@H]4C(=O)NCC(=O)N4CCC[C@H]4C(=O)N[C@@H](CCCNC(=N)N)C(=O)N[C@@H](CC(C)C)C(=O)NCC(=O)N[C@@H](Cc4ccc(O)cc4)C(=O)N[C@@H](CO)C(=O)N[C@@H](Cc4c[nH]c5ccccc45)C(=O)N[C@@H](CCCCN)C(=O)NC(=O)C4CCC(=O)N4)[C@@H](NC(=O)c4ccccc4)c4ccccc4)C(C)=C1C3(C)C)[C@]1(OC(C)=O)CO[C@@H]1C[C@@H]2O (some centres undefined) (H-C(X1)LLKRFFKKFGALGLPGPRLGYSW-X2),Drug uptake,[1],Active
same,Activity,[2],Non-Toxic
same,Activity,MCF7 [3],Dose-dependent effect
same,Activity,MCF7 [4],90.1%
same,Activity,[5],Non-Toxic
same,IC50,HeLa,20.3 nM
same,inhibition,Tubulin (Homo sapiens),Active
same,Activity,[6],Non-Toxic
same,Activity,[7],Non-Toxic
same,Activity,[8],Non-Toxic
same,Activity,[9],Non-Toxic
same,Activity,[10],Non-Toxic
same,Activity,Erythrocyte,Non-Toxic
same,Activity,[11],Non-Toxic
same,IC50,NCM460,> 80 nM
same,Activity,MCF7 [12],Active
same,Activity,[13],Non-Toxic
same,Activity,[14],Non-Toxic
same,Activity,[15],Non-Toxic
same,Drug metabolism,[16],Metabolite_Detected
same,Drug metabolism,[17],Metabolite_Notdetected
same,Stabilty,[18],Stable
same,Activity,MCF7 [19],inactive
same,Activity,MCF7 [20],inactive
same,Activity,MCF7 [21],Dose-dependent effect
same,IC50,[22],800 nM
same,Activity,[23],Non-Toxic
same,Activity,MCF7 [24],Active
same,Drug uptake,[25],Active

# Reference: ChEMBL document CHEMBL4732115, “Discovery of novel cell-penetrating and tumor-targeting peptide-drug conjugate (PDC) for programmable delivery of paclitaxel and cancer treatment” (Eur J Med Chem, 2021)
